The values that follow come from patent publication US20190119200A1, “TERTIARY AMIDES AND METHOD OF USE” (AbbVie Inc., priority 2016, published 2019).

Common to all, as to assay type: cell-based
Assay [1] deals with LPA-induced MCP-1 in NRK-49F cells. Kind of assay: LPA-induced MCP-1 AlphaLISA assay. The note with it: Rattus norvegicus, final LPA 10 μM, 7 hours; for Emax: read-out: Maximum Inhibition. The essentials: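 NRK-49F rat fibroblasts, serum-starved overnight, pretreated with compound for 30 min at 37 °C (1% DMSO final), then stimulated with 10 μM LPA final. MCP-1 in the supernatant was measured by mouse/rat CCL2 AlphaLISA. IC50 values came from four-parameter logistic fits of the ratio data.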

The target in assay [2] is T1, LPAR1 (Homo sapiens, UniProt Q92633).
T1 construct: host or cells: U2OS
T1 sequence (Q92633 whole entry): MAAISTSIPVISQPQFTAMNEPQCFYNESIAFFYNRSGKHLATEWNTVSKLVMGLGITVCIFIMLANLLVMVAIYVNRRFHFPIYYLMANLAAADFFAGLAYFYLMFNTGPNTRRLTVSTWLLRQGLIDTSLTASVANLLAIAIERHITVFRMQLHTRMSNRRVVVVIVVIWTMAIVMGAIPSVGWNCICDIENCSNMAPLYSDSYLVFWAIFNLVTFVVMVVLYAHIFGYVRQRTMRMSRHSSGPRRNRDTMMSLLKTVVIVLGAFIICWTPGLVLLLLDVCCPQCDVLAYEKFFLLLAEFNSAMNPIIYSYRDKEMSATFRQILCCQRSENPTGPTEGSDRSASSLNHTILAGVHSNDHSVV
Kind of assay: LPAR1 FLIPR Assay. The conditions noted are these: U2OS cells stably expressing LPAR1, LPA (EC80), Calcium 6 FLIPR dye; for Emax: read-out: Maximum Inhibition. The essentials: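 U2OS cells stably expressing LPAR1 were loaded with Calcium 6 dye for 2 h at 37° C, preincubated 3 min with compound (11-point 3-fold series), then stimulated with LPA at EC80. Fluorescence at 515-575 nm was recorded by FLIPR; IC50 came from four-parameter logistic fits of ratio data.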

The target of assay [3] is T1, LPAR1. The assay can be described thus: IP-One HTRF Assay. The conditions noted are these: U2OS cells stably expressing LPAR1, LPA stimulation, IP-One Tb HTRF kit; for Emax: read-out: Maximum Inhibition. On the procedure: U2OS cells stably expressing LPAR1 (Life Technologies #K1519A) were plated at 20000 cells/well in growth medium (McCoy's 5A(Life Technologies #16600-082)) with 10% dFBS (Life Technologies #26400-036), 0.1 mM non-essential amino acids, 25 mM HEPES, 1 mM sodium pyruvate, 1% penicillin/streptomycin, 50 μg/mL hygromycin, and 100 μg/mL Geneticin® in tissue culture treated 384-well white plates (Greiner #781080) in humidified 5% CO2 at 37° C. overnight. On the day of the assay, culture medium was replaced with 30 μL/well of McCoy's 5A with 0.1% BSA. Cells were incubated in humidified 5% CO2 at 37° C. for 3 more hours. Compounds were 3-fold serial diluted from 2 mM for 11-points using dimethyl sulfoxide. 1 μL of compound in DMSO was diluted in 50 μL stimulation buffer from an IP-One Tb HTRF kit (Cisbio #62IPAPEB) immediately before assay. 15 μL/well of 1.33× compound in stimulation buffer was added to cells after removal of culture medium. After 20 minutes of incubation at 37° C., 5 μL/well of 8 μM LPA diluted in stimulation buffer with 0.1% fatty acid free BSA was added to cells. […]. To EC100 wells were added 4×20 μM LPA. To the cells were added 5 μL/well IP1-d2 conjugate and 5 μLwell IP1-K antibody after 2 hours of incubation at 37° C. Cells were incubated at room temperature for 1 hour (protected from light). The plate was then read at 665 nm and 615 nm using an EnVision® Multilabel Plate Reader. IC50 values were calculated from curve fits of the ratio data using a four-parameter logistic Hill equation (Assay Explorer 3.3 Client).

As for `COc1cc(C(=O)N(CCCc2ccccc2)CC(=O)NC2(C(=O)O)Cc3ccccc3C2)cc(OC)c1C` [Example 1, 2-{[N-(3,5-dimethoxy-4-methylbenzoyl)-N-(3-phenylpropyl)glycyl]amino}-2,3-dihydro-1H-indene-2-carboxylic Acid], the IC50 in assay [1] was 1540 nM; in assay [2], 45 nM; in assay [3], 1210 nM. The Emax is 66% in assay [1], 74% in assay [2] and 75% in assay [3].
As for `CNS(=O)(=O)NC(=O)CCCCN(CCCc1ccccc1)C(=O)C1(c2ccc(OC)cc2)CC1` [Example 73, 1-(4-methoxyphenyl)-N-{5-[(methylsulfamoyl)amino]-5-oxopentyl}-N-(3-phenylpropyl)cyclopropane-1-carboxamide], the IC50 in assay [1] was 5160 nM; in assay [2], 60 nM; in assay [3], greater than 30000 nM. In addition, the Emax in assay [1] is 79%; in assay [2], 65%; in assay [3], 44%.
Consider `CCOP(=O)(O)CCCCN(CCCc1ccccc1)C(=O)c1cc(OC)cc(OC)c1` [Example 76, ethyl hydrogen {4-[(3,5-dimethoxybenzoyl)(3-phenylpropyl)amino]butyl}phosphonate], for which the IC50 in assay [1] was greater than 10000 nM; in assay [2], 48 nM; in assay [3] it was 5830 nM. Also, the Emax in assay [1] turned out to be 36%; in assay [2], 76%; in assay [3], 65%.
On to `COc1cc(C(=O)N(CCCc2c(F)cccc2F)CCOCC(=O)O)cc(OC)c1C` [Example 128, (2-{[3-(2,6-difluorophenyl)propyl](3,5-dimethoxy-4-methylbenzoyl)amino}ethoxy)acetic Acid], for which the figures for the IC50 in assay [1], in assay [2] and in assay [3] were 1080 nM, 23 nM and 1800 nM, respectively. Also, the Emax in assay [1] was 78%; in assay [2], 89%; in assay [3], 101%.
`COc1cc(C(=O)N(CCCc2ccccc2)CCOCC2(C(=O)O)CC2)cc(OC)c1C` [Example 59, 1-({2-[(3,5-dimethoxy-4-methylbenzoyl)(3-phenylpropyl)amino]ethoxy}methyl)cyclopropane-1-carboxylic Acid]: the results for the IC50 in assay [1], in assay [2] and in assay [3] were 127 nM, 23 nM and 449 nM, respectively. The results for the Emax in assay [1], in assay [2] and in assay [3] were 93%, 100% and 88%, respectively.
Take `CNS(=O)(=O)NC(=O)CCCCN(CCCc1ccccc1)C(=O)c1cc(OC)cc(OC)c1` [Example 74, 3,5-dimethoxy-N-{5-[(methylsulfamoyl)amino]-5-oxopentyl}-N-(3-phenylpropyl)benzamide]: the concentration for half-maximal inhibition (IC50) in assay [1] was found to be 3880 nM; in assay [2], 79 nM; in assay [3], 1180 nM. The figures for the Emax in assay [1], in assay [2] and in assay [3] were 77%, 67% and 63%, respectively.
As to `COc1cc(C(=O)N(CCCc2ccccc2)CCOCCC(=O)O)cc(OC)c1C` [Example 56, 3-{2-[(3,5-dimethoxy-4-methylbenzoyl)(3-phenylpropyl)amino]ethoxy}propanoic Acid], the half-inhibitory concentration (IC50) in assay [1] came out at 1240 nM; in assay [2], 21 nM; in assay [3], 424 nM. Moreover, the Emax in assay [1] was determined as 79%; in assay [2] it was 95%; in assay [3] it was 100%.
Consider `COc1cc(C(=O)N(CCCc2ccccc2)CCSCC2(C(=O)O)CC2)cc(OC)c1C` [Example 61, 1-[({2-[(3,5-dimethoxy-4-methylbenzoyl)(3-phenylpropyl)amino]ethyl}sulfanyl)methyl]cyclopropane-1-carboxylic Acid], for which the results for the IC50 in assay [1], in assay [2] and in assay [3] were 147 nM, 20 nM and 114 nM, respectively. Besides, the Emax in assay [1] amounted to 92%; in assay [2], 98%; in assay [3], 85%.
For `COc1cc(C(=O)N(CCCC(=O)O)CCCc2ccccc2)cc(OC)c1C` [Example 69, 4-[(3,5-dimethoxy-4-methylbenzoyl)(3-phenylpropyl)amino]butanoic Acid], the values for the half-maximal inhibitory concentration (IC50) in assay [1], in assay [2] and in assay [3] were 1660 nM, greater than 30000 nM and 3820 nM, respectively. The Emax in assay [1] is 62%; in assay [2], 38%; in assay [3], 85%.
Consider `COc1cc(C(=O)N(CCCCC(=O)O)CCCc2ccc(C)s2)cc(OC)c1C` [Example 41, 5-{(3,5-dimethoxy-4-methylbenzoyl)[3-(5-methylthiophen-2-yl)propyl]amino}pentanoic Acid], for which the IC50 in assay [1] worked out at 335 nM; in assay [2], 22 nM; in assay [3], 191 nM. The Emax in assay [1] turned out to be 88%; in assay [2], 97%; in assay [3], 100%.
For `COc1cc(C(=O)N(CCCCC(=O)NS(=O)(=O)c2ccccn2)CCCc2ccccc2)cc(OC)c1C` [Example 141, 3,5-dimethoxy-4-methyl-N-{5-oxo-5-[(pyridine-2-sulfonyl)amino]pentyl}-N-(3-phenylpropyl)benzamide], the half-maximal inhibitory concentration (IC50) worked out at 143 nM in assay [1], 28 nM in assay [2] and 200 nM in assay [3]. The Emax amounted to 84% in assay [1], 94% in assay [2] and 76% in assay [3].
For the compound `COc1cc(C(=O)N(CCCCC(=O)O)CCCc2cccc(C)c2)cc(OC)c1C` [Example 11, 5-{(3,5-dimethoxy-4-methylbenzoyl)[3-(3-methylphenyl)propyl]amino}pentanoic Acid], the IC50 in assay [1] was 247 nM; in assay [2], 15 nM; in assay [3] it was 253 nM. Further, the Emax in assay [1] is 91%; in assay [2], 96%; in assay [3], 88%.

One may read the IC50 as the concentration needed to halve the response being measured.
